# Tests used:
# Assay type in all cases: cell-based, mouse
# [1] = system: Panstra 12; assay: SACK responsiveness (cell kinetics, colony formation), Panstra 12; design: key: SACK-responsive (R); non-responsive (NR); conditions: Panstra 12, SACK agent Xn
# Source text: (§1) The terms “SACK-R” and “Xn-responsive” are used interchangeably. Xn-responsive cells are not transformed cells.
# (§2) In the example, the differentiated cells are adult mouse pancreatic islet cells and Xn is the chemical compound used to suppress asymmetric cell kinetics (SACK). […] These Xn-treated and Xn-responsive cells then proceeded to express alkaline phosphatase, a known enzyme marker that is highly expressed in undifferentiated cells such as primordial germ cells (FIG. 8), after culture in media that support the proliferation of mouse pluripotent stem cells. Under these conditions, these Xn-expanded and Xn-responsive cells also multiply to form colonies that take on a clonal mouse embryonic stem cell-like morphology in culture, resembling a compact clump of round tiny cells, the clump having a smooth and well defined edge (FIG. 7B).
# The SACK-derived clonal pancreatic cell strains have properties of either beta-cell precursors (Pdx1+) or more primitive pancreatic cells (Pdx1−). In the colony formation analyses, three hundred (300) cells were plated in replicate (n=3) 30-mm diameter culture dishes. Twenty-four hours later, the culture medium was replaced with the medium supplemented with SACK agents as indicated. Ten days later, plates were stained with crystal violet and colonies counted. Xs, xanthosine; Xn, xanthine; Hx hypoxanthine.
# [2] = system: Panstra 11; assay: Gene-free iPSC reprogramming, Panstra 11; conditions: Panstra 11, SACK agent Xn
# Method: (§3) Each tested SACK-derived cell strain was cultured on STO cell feeder monolayers in control medium with 10% DFBS, dialyzed fetal bovine serum (DFBS) or either of two commercial media for culture of murine embryonic stem cells (ESCs) and for the culture of reprogrammed cells such as iPSCs. Each medium condition was evaluated with or without supplementation with 1 mM xanthine (Xn). P/S denotes routine use of the antibiotics penicillin and streptomycin.
# (§4) The method is an original pharmacological procedure for producing pluripotent stem cells. Cell strains derived in xanthine (Xn)-supplemented medium, by the method of suppression of asymmetric cell kinetics (SACK), were cultured in commercial media specified for the culture and/or production of pluripotent stem cells such as embryonic stem cells and iPSCs. Approximately 150,000 cells were plated on confluent STO cell feeders (i.e., mouse embryonic fibroblasts pre-treated with mitomycin C) in 10-cm culture dishes. In 2 weeks, iPSC-like cell colonies were detected.
# Tissue-specific stem cells (e.g., Panstra-25 and Panstra-12 mouse pancreatic stem cell strains in the instant example) were cultured on mitomycin C-treated STO cell monolayers in commercial embryonic stem cell medium supplemented with the purine salvage base xanthine at 1 mM concentration (FIG. 4). […]
# [3] = system: SACK-responsive, Pdx1-positive Panstra-25 pancreatic stem cells; assay: Gene-free iPSC reprogramming on STO feeders, colony phenotypes, Panstra-25; conditions: for Estimated gene-free iPSC colony formation efficiency, ES, AP+ (iPSC state) / Estimated gene-free iPSC colony formation efficiency, ES, AP− / Estimated gene-free iPSC colony formation efficiency, Fl, AP+ / Estimated gene-free iPSC colony formation efficiency, Fl, AP− / Phenotype ES, AP+ (iPSC state) of individual cell clones following expansion, clones/total / Phenotype ES, AP+ (iPSC state) of individual cell clones following expansion, percent / Phenotype ES, AP− of individual cell clones following expansion, clones/total / Phenotype ES, AP− of individual cell clones following expansion, percent / Phenotype Fl, AP+ of individual cell clones following expansion, clones/total / Phenotype Fl, AP+ of individual cell clones following expansion, percent / Phenotype Fl, AP− of individual cell clones following expansion, clones/total / Phenotype Fl, AP− of individual cell clones following expansion, percent: Panstra-25, 1 mM Xn
# Method: as §3, §4
# To establish clonal strains, single colonies were picked, cultured in individual wells, and expanded for further study and cryo-preservation. A high fraction of the derived cell clones have morphological and biochemical properties indicative of iPSC cells.
# Tissue-specific stem cells (e.g., Panstra-25 and Panstra-12 mouse pancreatic stem cell strains in the instant example) were cultured on mitomycin C-treated STO cell monolayers in commercial embryonic stem cell medium supplemented with the purine salvage base xanthine at 1 mM concentration (FIG. 4). Within 2-3 weeks of culture under otherwise standard conditions, cell colonies with embryonic stem cell-like morphology developed (FIG. 7B). These colonies were removed by mild trypsin treatment, transferred to individual cell culture wells prepared with STO cell feeders, and expanded in the respective embryonic stem cell culture medium supplemented with 1 mM xanthine (FIG. 5). The expanded cell clones expressed alkaline phosphatase (FIG. 8), a biochemical biomarker for the pluripotent phenotype of embryonic stem cells and iPSC cells. […] Xn supplementation increased the average production efficiency by as much as 3-fold (Table 6).
# [4] = system: Panstra 25; assay: SACK responsiveness (cell kinetics, colony formation), Panstra 25; design: key: SACK-responsive (R); non-responsive (NR); conditions: Panstra 25, SACK agent Xn
# Method: Cells were plated at colony forming density in SACK-free culture medium (Control) or culture medium supplemented to 1 mM concentration with the SACK agents xanthosine (Xs), xanthine (Xn), or hypoxanthine (Hx).
# as §1, §2
# The SACK-derived clonal pancreatic cell strains have properties of either beta-cell precursors (Pdx1+) or more primitive pancreatic cells (Pdx1−). In the colony formation analyses, three hundred (300) cells were plated in replicate (n=3) 30-mm diameter culture dishes. […] Ten days later, plates were stained with crystal violet and colonies counted. […]
# [5] = system: reprogramming genes (Oct4, Sox2, Klf4, Myc, Lin28) in Panstra-25 - Xn responsive; assay: Micro-array expression of reprogramming gene mRNAs, Panstra-25
# Source text: Table 2. Micro-array expression levels for described iPSC reprogramming gene mRNAs in SACK-derived mouse pancreatic stem cell strains. […] Panstra-11 is a non-responsive strain.
# All the described induced pluripotent stem cell (iPSC) reprogramming genes are detected in two cell strains derived with the suppression of asymmetric cell kinetics (SACK)-agent xanthine (Xn). The SACK strains were derived from pancreatic islets of adult xanthine phosphoribosyl transferase (XPRT)-transgenic mice. The derivation of such strains requires both the XPRT-transgenic genotype and Xn.
smiles,measurement,setting,value
"O=c1[nH]c(=O)c2[nH]cnc2[nH]1 [Xn, xanthine]",SACK Type,[1],R
same,iPSC (gene-free iPSC reprogramming),[2],No
same,iPSC (gene-free iPSC reprogramming),"[3]; Panstra 25, SACK agent Xn",Yes
same,"Estimated gene-free iPSC colony formation efficiency, ES, AP+ (iPSC state)",[3]; DFBS,0.000%
same,"Estimated gene-free iPSC colony formation efficiency, ES, AP−",[3]; DFBS,0.000%
same,"Estimated gene-free iPSC colony formation efficiency, Fl, AP+",[3]; DFBS,0.000%
same,"Estimated gene-free iPSC colony formation efficiency, Fl, AP−",[3]; DFBS,0.059%
same,"Phenotype ES, AP+ (iPSC state) of individual cell clones following expansion, clones/total",[3]; DFBS,0/22
same,"Phenotype ES, AP+ (iPSC state) of individual cell clones following expansion, percent",[3]; DFBS,0%
same,"Phenotype ES, AP− of individual cell clones following expansion, clones/total",[3]; DFBS,0/22
same,"Phenotype ES, AP− of individual cell clones following expansion, percent",[3]; DFBS,0%
same,"Phenotype Fl, AP+ of individual cell clones following expansion, clones/total",[3]; DFBS,0/22
same,"Phenotype Fl, AP+ of individual cell clones following expansion, percent",[3]; DFBS,0%
same,"Phenotype Fl, AP− of individual cell clones following expansion, clones/total",[3]; DFBS,22/22
same,"Phenotype Fl, AP− of individual cell clones following expansion, percent",[3]; DFBS,100%
same,"Estimated gene-free iPSC colony formation efficiency, ES, AP+ (iPSC state)",[3]; KOSR,0.016%
same,"Estimated gene-free iPSC colony formation efficiency, ES, AP−",[3]; KOSR,0.037%
same,"Estimated gene-free iPSC colony formation efficiency, Fl, AP+",[3]; KOSR,0.000%
same,"Estimated gene-free iPSC colony formation efficiency, Fl, AP−",[3]; KOSR,0.000%
same,"Phenotype ES, AP+ (iPSC state) of individual cell clones following expansion, clones/total",[3]; KOSR,6/20
same,"Phenotype ES, AP+ (iPSC state) of individual cell clones following expansion, percent",[3]; KOSR,30%
same,"Phenotype ES, AP− of individual cell clones following expansion, clones/total",[3]; KOSR,14/20
same,"Phenotype ES, AP− of individual cell clones following expansion, percent",[3]; KOSR,70%
same,"Phenotype Fl, AP+ of individual cell clones following expansion, clones/total",[3]; KOSR,0/20
same,"Phenotype Fl, AP+ of individual cell clones following expansion, percent",[3]; KOSR,0%
same,"Phenotype Fl, AP− of individual cell clones following expansion, clones/total",[3]; KOSR,0/20
same,"Phenotype Fl, AP− of individual cell clones following expansion, percent",[3]; KOSR,0%
same,"Estimated gene-free iPSC colony formation efficiency, ES, AP+ (iPSC state)",[3]; hiFBS,0.008%
same,"Estimated gene-free iPSC colony formation efficiency, ES, AP−",[3]; hiFBS,0.027%
same,"Estimated gene-free iPSC colony formation efficiency, Fl, AP+",[3]; hiFBS,0.003%
same,"Estimated gene-free iPSC colony formation efficiency, Fl, AP−",[3]; hiFBS,0.013%
same,"Phenotype ES, AP+ (iPSC state) of individual cell clones following expansion, clones/total",[3]; hiFBS,3/19
same,"Phenotype ES, AP+ (iPSC state) of individual cell clones following expansion, percent",[3]; hiFBS,16%
same,"Phenotype ES, AP− of individual cell clones following expansion, clones/total",[3]; hiFBS,10/19
same,"Phenotype ES, AP− of individual cell clones following expansion, percent",[3]; hiFBS,53%
same,"Phenotype Fl, AP+ of individual cell clones following expansion, clones/total",[3]; hiFBS,1/19
same,"Phenotype Fl, AP+ of individual cell clones following expansion, percent",[3]; hiFBS,5%
same,"Phenotype Fl, AP− of individual cell clones following expansion, clones/total",[3]; hiFBS,5/19
same,"Phenotype Fl, AP− of individual cell clones following expansion, percent",[3]; hiFBS,26%
same,SACK Type,[4],R
same,Klf4 expression (gene micro-array data),"[5]; Panstra-25, Xn",31.8
same,Lin28 expression (gene micro-array data),"[5]; Panstra-25, Xn",1.0
same,Myc expression (gene micro-array data),"[5]; Panstra-25, Xn",35.5
same,Oct4 expression (gene micro-array data),"[5]; Panstra-25, Xn",2.3
same,Sox2 expression (gene micro-array data),"[5]; Panstra-25, Xn",0.2
same,Klf4 and Myc mRNA expression in response to culture in Xn,"[5]; SACK-derived strains, Table 2",increased mRNA expression
